Article PMC5259782, “Allosteric Inhibition of Phosphoenolpyruvate Carboxylases is Determined by a Single Amino Acid Residue in Cyanobacteria” (Scientific Reports, 2017)

Columns and labels:
Assay in all cases: malate dehydrogenase-coupled NADH assay, residual activity
Type in all cases: biochemical
AnPEPC [1] = target: T1, AnPEPC (Nostoc sp. PCC 7120 = FACHB-418, UniProt P28594); details: aspartate; allosteric
T1 construct: gene ppc

AnPEPC [2] = target: T2, AnPEPC (Nostoc sp. PCC 7120 = FACHB-418, UniProt P28594, K946E); details: aspartate; allosteric
T2 construct: gene ppc
T2 sequence (P28594 whole entry K946E): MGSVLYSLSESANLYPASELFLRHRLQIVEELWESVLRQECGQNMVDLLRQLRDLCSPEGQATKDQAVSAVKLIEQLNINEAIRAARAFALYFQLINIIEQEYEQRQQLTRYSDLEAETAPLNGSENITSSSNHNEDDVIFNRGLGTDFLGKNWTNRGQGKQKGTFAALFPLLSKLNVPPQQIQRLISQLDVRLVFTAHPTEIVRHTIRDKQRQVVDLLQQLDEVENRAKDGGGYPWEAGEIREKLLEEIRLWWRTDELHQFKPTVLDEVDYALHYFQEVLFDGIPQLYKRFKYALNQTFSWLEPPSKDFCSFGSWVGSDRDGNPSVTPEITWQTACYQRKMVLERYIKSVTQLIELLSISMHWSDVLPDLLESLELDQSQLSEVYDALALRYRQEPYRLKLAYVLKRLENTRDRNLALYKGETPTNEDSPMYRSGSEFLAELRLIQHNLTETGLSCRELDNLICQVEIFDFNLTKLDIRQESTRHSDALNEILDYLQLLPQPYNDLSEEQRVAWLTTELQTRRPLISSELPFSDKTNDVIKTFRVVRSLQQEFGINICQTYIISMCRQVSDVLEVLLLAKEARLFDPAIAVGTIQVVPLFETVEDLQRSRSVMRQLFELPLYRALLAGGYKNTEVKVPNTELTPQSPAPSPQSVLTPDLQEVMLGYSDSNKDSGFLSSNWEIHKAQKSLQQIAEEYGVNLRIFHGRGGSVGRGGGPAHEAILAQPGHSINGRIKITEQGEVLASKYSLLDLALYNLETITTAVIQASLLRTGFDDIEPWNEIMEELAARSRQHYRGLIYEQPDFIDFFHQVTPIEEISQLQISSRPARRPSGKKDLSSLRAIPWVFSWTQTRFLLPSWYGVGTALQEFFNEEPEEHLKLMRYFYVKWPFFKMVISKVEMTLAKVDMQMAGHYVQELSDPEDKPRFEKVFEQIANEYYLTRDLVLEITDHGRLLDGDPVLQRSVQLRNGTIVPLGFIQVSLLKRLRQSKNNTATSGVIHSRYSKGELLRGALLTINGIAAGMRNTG

SyPEPC = target: T3, SyPEPC (Synechocystis sp. PCC 6803, UniProt P74299); details: read-out: SyPEPC activity (in vitro)
T3 construct: gene ppc
T3 sequence (P74299 1-1034): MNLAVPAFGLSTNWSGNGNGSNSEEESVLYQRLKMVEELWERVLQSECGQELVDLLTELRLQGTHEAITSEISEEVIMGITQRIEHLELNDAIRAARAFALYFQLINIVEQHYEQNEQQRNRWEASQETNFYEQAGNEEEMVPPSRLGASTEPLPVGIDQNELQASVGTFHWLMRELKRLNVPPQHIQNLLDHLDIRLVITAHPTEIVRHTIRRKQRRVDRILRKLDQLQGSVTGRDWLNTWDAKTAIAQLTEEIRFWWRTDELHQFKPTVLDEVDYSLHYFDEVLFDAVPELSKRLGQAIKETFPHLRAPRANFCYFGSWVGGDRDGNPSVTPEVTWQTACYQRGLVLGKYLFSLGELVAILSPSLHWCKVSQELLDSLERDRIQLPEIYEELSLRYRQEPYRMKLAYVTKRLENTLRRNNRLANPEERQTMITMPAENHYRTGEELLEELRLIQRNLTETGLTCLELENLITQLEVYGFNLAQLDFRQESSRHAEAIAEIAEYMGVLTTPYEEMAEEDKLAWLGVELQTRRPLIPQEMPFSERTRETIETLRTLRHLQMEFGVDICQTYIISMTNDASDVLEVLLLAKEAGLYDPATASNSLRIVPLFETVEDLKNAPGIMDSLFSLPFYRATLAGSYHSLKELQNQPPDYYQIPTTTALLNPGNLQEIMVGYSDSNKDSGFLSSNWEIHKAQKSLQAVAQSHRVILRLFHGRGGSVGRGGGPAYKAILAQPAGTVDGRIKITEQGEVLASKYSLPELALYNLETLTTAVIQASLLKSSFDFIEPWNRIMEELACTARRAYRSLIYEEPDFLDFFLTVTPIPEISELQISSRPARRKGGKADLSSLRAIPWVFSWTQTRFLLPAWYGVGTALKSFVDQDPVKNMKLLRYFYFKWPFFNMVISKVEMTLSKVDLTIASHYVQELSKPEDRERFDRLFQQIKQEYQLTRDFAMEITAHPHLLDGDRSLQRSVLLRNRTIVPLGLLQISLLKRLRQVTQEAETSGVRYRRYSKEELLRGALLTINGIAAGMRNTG
Excerpt: malate dehydrogenase-coupled NADH assay, residual activity on SyPEPC

T1 sequence (P28594 whole entry): as the sequence (P28594 whole entry K946E) above, with E946K counted along it

N[C@@H](CC(=O)O)C(=O)O [aspartate]
% activity remaining (AnPEPC [1]): The inhibitory effect of aspartate on AnPEPC was not altered by this amino acid substitution
% activity remaining (AnPEPC [2]): The inhibitory effect of aspartate on AnPEPC was not altered by this amino acid substitution
activity at 1000 µM (SyPEPC): 85.2 ± 10.7%
